Assay results published in patent US20230391785A1, “NITROGEN-CONTAINING HETEROCYCLIC COMPOUND, METHOD FOR PREPARING SAME AND USE OF SAME” (280 Bio, Inc., priority 2021, published 2023).
Where two headings read alike, the source gives them in different places.

Key:
Assay type in all cases: cell-based
[1] = test system: AsPC-1 pancreatic cancer cell line (KRAS G12D mutation); test: Proliferation inhibition measured by CTG (CellTiter Glo), AsPC-1; settings: Homo sapiens, ASPC1
Description: (§1) NCI-H358 is a human non-small cell lung cancer cell line with KRAS G12C mutation; PANC-1 and AsPC-1 are pancreatic cancer cell lines with KRAS G12D mutation; AGS is a gastric cancer cell line with KRAS G12D mutation; A427 is a lung cancer cell line with KRAS G12D mutation; THP-1 is a leukemia cell line with NRAS G12D mutation; Hs 578T is a breast cancer cell line with HRAS G12D mutation; SW480 is a colon cancer cell lines with KRAS G12V mutation; A375 is a wild type malignant melanoma cell line. The proliferation inhibitory effect of the compounds on various mutations was evaluated by determining the proliferation inhibitory activity of the compounds on these cell lines.
(§2) The assay was conducted on either 384-well plates or 96-well plates. The procedures are as follows:
(§3) The cell suspensions were added to 384- or 96-well plates (384-well plate: 40 μL; 96-well plate: […]) except for peripheral wells. The plates were incubated in a carbon dioxide incubator overnight. Prepared compounds (10 concentration gradients by serial 3-fold dilution) were added to the wells. The cell plates were incubated in a carbon dioxide incubator for 120 hours. CellTiter Glo reagent (384 well plate: 25 μL; 96 well plate: 100 μL) was added to the 384- or 96-well plates. The plates were shaken for 10 minutes away from light, and incubated for 10 minutes. The plates were read by EnVision system. Inhibition curves were plotted using XLFit and IC50 values were calculated. “IC50>10 μM” is denoted by “*”, “10 μM≥IC50>1 μM” is denoted by “**”, “1 μM≥IC50>100 nM” is denoted by “***”, and “IC50≤100 nM” is denoted by “****”.

[2] = test system: A375 wild type malignant melanoma cell line; test: Proliferation inhibition measured by CTG (CellTiter Glo), A375; settings: Homo sapiens, A-375
Description: as §1, §2, §3

[3] = test system: A427 lung cancer cell line (KRAS G12D mutation); test: Proliferation inhibition measured by CTG (CellTiter Glo), A427; settings: Homo sapiens, A-427
Description: as §1, §2, §3

[4] = test system: NCI-H358 cells (KRAS G12C mutation); test: Proliferation inhibition measured by CTG (CellTiter Glo), NCI-H358; settings: Homo sapiens
Description: as §1, §2, §3

[5] = test system: A549 cells (G12S); test: Proliferation inhibition measured by CTG (CellTiter Glo), A549; settings: Homo sapiens, Table 2, 120 hours incubation
[6] = test system: SW480 colon cancer cell line (KRAS G12V mutation); test: Proliferation inhibition measured by CTG (CellTiter Glo), SW480; settings: Homo sapiens, Table 2, 120 hours incubation, read-out: IC50 SW480 (G12V)
Description: as §1, §2, §3

[7] = test system: Hs 578T breast cancer cell line (HRAS G12D mutation); test: Proliferation inhibition measured by CTG (CellTiter Glo), Hs 578T; settings: Homo sapiens
Description: as §1, §2, §3

[8] = test system: THP-1 leukemia cell line (NRAS G12D mutation); test: Proliferation inhibition measured by CTG (CellTiter Glo), THP-1; settings: Homo sapiens
Description: as §1, §2, §3

[9] = test system: AGS gastric cancer cell line (KRAS G12D mutation); test: Proliferation inhibition measured by CTG (CellTiter Glo), AGS
Description: as §1, §2, §3

[10] = test system: PANC-1 pancreatic cancer cell line (KRAS G12D mutation); test: Proliferation inhibition measured by CTG (CellTiter Glo), PANC-1; settings: Homo sapiens, Table 2, 120 hours incubation
Description: as §1, §2
The cell suspensions were added to 384- or 96-well plates (384-well plate: 40 μL; 96-well plate: […]) except for peripheral wells. The plates were incubated in a carbon dioxide incubator overnight. Prepared compounds (10 concentration gradients by serial 3-fold dilution) were added to the wells. The cell plates were incubated in a carbon dioxide incubator for 120 hours. CellTiter Glo reagent (384 well plate: 25 μL; 96 well plate: 100 μL) was added to the 384- or 96-well plates. […] The plates were read by EnVision system. Inhibition curves were plotted using XLFit and IC50 values were calculated. […]

[11] = test system: RPMI 8226 cells (G12A); test: Proliferation inhibition measured by CTG (CellTiter Glo), RPMI 8226; settings: Homo sapiens, Table 2, 120 hours incubation
[12] = test system: NCI-H647 cells (G13D); test: Proliferation inhibition measured by CTG (CellTiter Glo), NCI-H647; settings: Homo sapiens, Table 2, 120 hours incubation
[13] = Table 1, CTG, 120 hours incubation, class symbol
[14] = Table 1, CTG, 120 hours incubation, class symbol, read-out: IC50 (A375)
[15] = Table 1, CTG, 120 hours incubation, class symbol, read-out: IC50 (H358)
[16] = Table 1, number in parentheses, unit not given in Table 1 (legend and Table 2 use μM)
[17] = Table 1, CTG, 120 hours incubation, class symbol, read-out: IC50 (AGS)

SMILES | IC50 [1, 13] [µM] | IC50 [2, 14] [µM] | IC50 [3, 13] [µM] | IC50 [4, 15] [µM] | IC50 [7, 13] [µM] | IC50 [8, 13] [µM] | IC50 [9, 17] [µM] | also measured
CN1CCC[C@@H]1COc1nc2c(c(N3CCn4cncc4C3)n1)CO[C@H](c1cccc3cccc(Cl)c13)C2 [Compound 4] | 1 to 10 | 0.1 to 1 | 0.1 to 1 | 1 to 10 |  |  |  | 
CN1CCC[C@H]1COc1nc2c(c(N3CCn4c(cnc4N)C3)n1)CCN(c1cccc3cccc(Cl)c13)C2 [Compound 7] | 1 to 10 | 0.1 to 1 | 0.1 to 1 | 0.1 to 1 |  |  |  | 
CN1CCC[C@H]1COc1nc2c(c(N3CCn4c(cnc4C#N)C3)n1)CCN(c1cccc3cccc(Cl)c13)C2 [Compound 8] | 1 to 10 | 0.1 to 1 | 0.1 to 1 | 1 to 10 |  |  |  | 
CC1CN(c2nc(OC[C@@H]3CCCN3C)nc3c2CCN(c2cccc4cccc(Cl)c24)C3)Cc2cncn21 (stereo partly drawn) [Compound 11] | 0.1 to 1 | 0.1 to 1 | 0.1 to 1 | 0.1 to 1 |  |  |  | 
Cc1cccc2cccc(N3CCc4c(nc(OC[C@@H]5CCCN5C)nc4N4CCn5cncc5C4)C3)c12 [Compound 17] | 0.1 to 1 | 0.1 to 1 | 0.1 to 1 | 0.1 to 1 |  |  |  | 
CN1CCO[C@@H](COc2nc3c(c(N4CCn5cncc5C4)n2)CCN(c2cccc4cccc(Cl)c24)C3)C1 [Compound 32] | 1 to 10 | 1 to 10 |  | 0.1 to 1 | 1 to 10 | 1 to 10 | 1 to 10 | 
CN1CCC[C@H]1COc1nc2c(c(N3CCn4cnc(Br)c4C3)n1)CCN(c1cccc3cccc(Cl)c13)C2 [Compound 33] | 0.1 to 1 | 0.1 to 1 |  | ≤ 0.1 | 0.1 to 1 | ≤ 0.1 | ≤ 0.1 | 
CN1CCC[C@H]1COc1nc2c(c(N3CCc4oncc4C3)n1)CCN(c1cccc3cccc(Cl)c13)C2 [Compound 34] | 0.1 to 1 | 1 to 10 |  | 0.1 to 1 | 1 to 10 | 0.1 to 1 | 0.1 to 1 | 
CN1CCC2(CC1)CC(Oc1nc3c(c(N4CCn5cncc5C4)n1)CCN(c1cccc4cccc(Cl)c14)C3)C2 [Compound 35] | 1 to 10 | 1 to 10 |  | 0.1 to 1 | 1 to 10 | 1 to 10 | 1 to 10 | 

Further lines, with some results ahead:

IC50 [1, 13] [µM] | IC50 [2, 14] [µM] | IC50 [3, 13] [µM] | IC50 [4, 15] [µM] | IC50 [7, 13] [µM] | IC50 [8, 13] [µM] | IC50 [9, 17] [µM] | SMILES | also measured
0.1 to 1 | 0.1 to 1 | 0.1 to 1 | 0.1 to 1 |  |  |  | CN1CCC[C@H]1COc1nc(N2CCn3cncc3C2)c2ccc(-c3cccc4cccc(Cl)c34)cc2n1 [Compound 1] | 
0.1 to 1 | 0.1 to 1 | ≤ 0.1 | ≤ 0.1 | 0.1 to 1 | ≤ 0.1 | ≤ 0.1 | CN1CCC[C@H]1COc1nc2c(c(N3CCn4cncc4C3)n1)CCN(c1cccc3cccc(Cl)c13)C2 [Compound 2] | IC50 [5]: 253 nM; IC50 [6]: 98 nM; IC50 [1, 16]: 0.139 µM; IC50 ([2]; Table 1, number in parentheses, unit not given in Table 1 (Table 2 gives the same value in μM), read-out: IC50 (A375)): 0.167 µM; IC50 ([2]; Table 2, CTG, 120 hours incubation, read-out: IC50 A375 (wide type)): 0.167 µM; IC50 [7, 16]: 0.237 µM; IC50 [8, 16]: 0.067 µM; IC50 ([9]; Table 1, number in parentheses, unit not given in Table 1 (Table 2 gives the same value in μM), read-out: IC50 (AGS)): 0.092 µM; IC50 ([9]; Table 2, CTG, 120 hours incubation, read-out: IC50 AGS (G12D)): 0.092 µM; IC50 [10]: 193 nM; IC50 [11]: 128 nM; IC50 [12]: 115 nM; IC50 [3, 16]: 0.07 µM; IC50 ([4]; Table 1, number in parentheses, no unit printed in Table 1 (Table 2 gives the same values of compound 2 in μM), read-out: IC50 (H358)): 0.063 µM; IC50 ([4]; Table 2, CTG, 120 hours incubation, read-out: IC50 H358 (G12C)): 0.063 µM
0.1 to 1 | 0.1 to 1 | 0.1 to 1 | 0.1 to 1 |  |  |  | CN1CCC[C@H]1COc1nc2c(c(N3CCn4c(cnc4CO)C3)n1)CCN(c1cccc3cccc(Cl)c13)C2 [Compound 6] | 
≤ 0.1 | 0.1 to 1 | ≤ 0.1 | ≤ 0.1 |  |  | ≤ 0.1 | CN1CCC[C@H]1COc1nc2c(c(N3CCn4cnc(C#N)c4C3)n1)CCN(c1cccc3cccc(Cl)c13)C2 [Compound 9] | 
0.1 to 1 | 0.1 to 1 | 0.1 to 1 | 0.1 to 1 |  |  |  | CN1CCC[C@H]1COc1nc2c(c(N3CCn4nncc4C3)n1)CCN(c1cccc3cccc(Cl)c13)C2 [Compound 10] | 
≤ 0.1 | 0.1 to 1 | ≤ 0.1 | 0.1 to 1 |  |  |  | CN(C)CCOc1nc2c(c(N3CCn4cncc4C3)n1)CCN(c1cccc3cccc(Cl)c13)C2 [Compound 16] | 
